{"source": "patent US8410178B2", "about": "“CIS 3,4-dihydroxy-2-(3-methylbutanoyl)-5-(3-methylbutyl)-4-(4-methylpentanoyl)cyclopent-2-en-1-derivatives, substantially enantiomerically pure compositions and methods” (KinDex Therapeutics, LLC, priority 2010, dated 2013)", "key": {"PPARα": {"target": "T1, PPARα (Homo sapiens, UniProt Q07869)", "T1 sequence (Q07869 1-468)": "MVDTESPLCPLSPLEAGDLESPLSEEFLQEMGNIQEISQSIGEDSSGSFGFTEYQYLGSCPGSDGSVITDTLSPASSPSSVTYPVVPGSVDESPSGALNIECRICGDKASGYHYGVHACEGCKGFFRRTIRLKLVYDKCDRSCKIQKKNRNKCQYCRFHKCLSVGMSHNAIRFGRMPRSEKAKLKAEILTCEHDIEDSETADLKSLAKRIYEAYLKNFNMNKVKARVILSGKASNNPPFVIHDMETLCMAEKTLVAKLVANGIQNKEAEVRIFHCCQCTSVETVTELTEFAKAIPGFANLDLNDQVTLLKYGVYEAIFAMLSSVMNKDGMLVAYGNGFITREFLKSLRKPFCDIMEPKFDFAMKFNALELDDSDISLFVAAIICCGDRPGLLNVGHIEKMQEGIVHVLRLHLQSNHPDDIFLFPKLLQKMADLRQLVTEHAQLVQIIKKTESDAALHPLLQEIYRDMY", "assay": "PPARα luciferase reporter assay", "type": "cell-based", "settings": "reporter cells, 20 hours", "procedure": "(§1) The functional effect of (+)-KDT501 on PPARα, PPARδ, and PPARγ activity was evaluated using a PPAR reporter assay (INDIGO Biosciences, PA). This assay utilizes non-human mammalian cells engineered to provide constitutive high level expression of PPARα, PPARδ, or PPARγ and containing a luciferase report gene specific to the appropriate PPAR. Following activation by agonist binding, PPAR induces expression of the luciferase reporter gene. Luciferase activity therefore provides a surrogate for measuring PPAR activity in agonist-treated cells.\n(§2) Reporter cells were plated on a 96-well plate at 100 μL per well, and 100 μL of (+)-KDT501 at various final concentrations (25, 12.5, 6.25, 3.125, 1.56 and 0.78 μM) was added to each well. […] 0.1% DMSO was also used as a negative control for each assay. Plates are incubated for 20 hours in a humidified incubator at 37° C. and 5% CO2. After incubation, cell medium was discarded and the cells were treated with 100 μL of luciferase detection reagent for 15 minutes. Plates were analyzed using a luminometer (Victor2, Perkin Elmer). Average relative light unit (RLU) and standard deviation were analyzed using GraphPad Prism."}, "PPARδ": {"target": "T2, PPARδ (Homo sapiens, UniProt Q03181)", "T2 sequence (Q03181 1-441)": "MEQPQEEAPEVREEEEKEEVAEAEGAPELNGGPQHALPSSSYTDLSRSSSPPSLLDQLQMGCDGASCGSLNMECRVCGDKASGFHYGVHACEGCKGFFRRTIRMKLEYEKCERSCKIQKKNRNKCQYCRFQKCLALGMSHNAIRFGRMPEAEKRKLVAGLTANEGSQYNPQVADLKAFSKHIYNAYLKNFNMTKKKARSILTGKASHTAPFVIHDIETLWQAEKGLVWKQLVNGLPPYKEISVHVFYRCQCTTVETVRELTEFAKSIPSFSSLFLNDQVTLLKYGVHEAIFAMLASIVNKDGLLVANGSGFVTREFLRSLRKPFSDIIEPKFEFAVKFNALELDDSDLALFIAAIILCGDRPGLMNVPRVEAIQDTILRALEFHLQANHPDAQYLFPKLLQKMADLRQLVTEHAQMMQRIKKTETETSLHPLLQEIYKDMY", "assay": "PPARδ luciferase reporter assay", "type": "cell-based", "settings": "reporter cells, 20 hours", "procedure": "as §1, §2"}, "Human DAPK1": {"target": "Human DAPK1 (Homo sapiens, UniProt P53355)", "sequence (P53355 whole entry)": "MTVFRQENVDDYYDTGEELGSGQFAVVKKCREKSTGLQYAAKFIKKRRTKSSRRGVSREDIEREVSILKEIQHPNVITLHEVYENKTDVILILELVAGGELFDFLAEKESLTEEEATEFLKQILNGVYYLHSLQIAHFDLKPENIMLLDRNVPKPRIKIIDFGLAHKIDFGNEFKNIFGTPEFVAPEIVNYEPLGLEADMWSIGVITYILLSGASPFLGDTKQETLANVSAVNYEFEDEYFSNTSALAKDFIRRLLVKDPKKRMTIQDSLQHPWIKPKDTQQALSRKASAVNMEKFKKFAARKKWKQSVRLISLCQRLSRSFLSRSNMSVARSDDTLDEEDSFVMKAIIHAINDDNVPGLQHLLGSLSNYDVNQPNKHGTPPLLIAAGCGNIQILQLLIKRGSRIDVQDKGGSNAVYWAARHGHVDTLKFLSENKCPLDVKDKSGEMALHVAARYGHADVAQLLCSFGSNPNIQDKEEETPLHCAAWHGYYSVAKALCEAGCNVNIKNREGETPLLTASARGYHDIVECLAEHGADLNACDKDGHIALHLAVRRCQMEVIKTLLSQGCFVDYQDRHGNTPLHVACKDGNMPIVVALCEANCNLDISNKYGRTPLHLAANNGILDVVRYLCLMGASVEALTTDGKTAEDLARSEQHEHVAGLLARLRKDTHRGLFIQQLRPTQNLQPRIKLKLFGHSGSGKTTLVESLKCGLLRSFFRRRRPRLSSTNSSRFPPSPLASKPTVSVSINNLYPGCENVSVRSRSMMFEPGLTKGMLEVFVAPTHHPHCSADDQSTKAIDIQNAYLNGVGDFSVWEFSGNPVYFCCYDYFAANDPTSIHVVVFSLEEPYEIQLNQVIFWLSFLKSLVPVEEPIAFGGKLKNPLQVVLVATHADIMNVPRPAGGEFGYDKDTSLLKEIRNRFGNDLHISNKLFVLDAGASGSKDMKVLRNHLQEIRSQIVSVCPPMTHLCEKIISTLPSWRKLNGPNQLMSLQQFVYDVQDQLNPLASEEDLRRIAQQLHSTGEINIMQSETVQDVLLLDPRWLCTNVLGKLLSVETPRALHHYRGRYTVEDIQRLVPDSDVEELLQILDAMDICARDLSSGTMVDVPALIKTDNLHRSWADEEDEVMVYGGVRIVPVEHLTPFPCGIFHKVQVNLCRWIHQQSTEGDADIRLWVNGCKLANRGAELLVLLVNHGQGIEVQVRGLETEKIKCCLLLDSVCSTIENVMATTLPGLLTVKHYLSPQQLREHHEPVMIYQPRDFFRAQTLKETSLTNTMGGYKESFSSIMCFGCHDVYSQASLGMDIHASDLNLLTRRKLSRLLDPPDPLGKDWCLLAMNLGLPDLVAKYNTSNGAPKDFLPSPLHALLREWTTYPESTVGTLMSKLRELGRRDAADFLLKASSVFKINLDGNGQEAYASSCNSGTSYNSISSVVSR", "assay": "DAPK1 activity, cell free kinase assay", "type": "biochemical", "procedure": "The effect of (+)-KDT501 and (−)-KDT501 on death-associated protein kinase 1 (DAPK1) activity was evaluated.\nHuman DAPK1 was incubated with 8 mM MOPS, pH 7.0, 0.2 mM EDTA, 250 μM ZIP peptide substrate ([…]), 10 mM MgOAc, and [γ-^33P-ATP] (specific activity approximately 500 cpm/pmol, concentration as required). (+)-KDT501 or (−)-KDT501 at varying concentrations (100, 30, 10, 1, 0.3, 0.1, 0.03, 0.01 μM) were added to the reaction mixture. The reaction was initiated by addition of the MgATP mix. After incubation for 40 minutes at room temperature, the reaction was stopped by addition of 3% phosphoric acid solution. 10 μL of reaction mixture was spotted onto a P30 filtermat, washed three times for five minutes in 75 mM phosphoric acid and once in methanol prior, then dried and subjected to scintillation counting."}, "[1]": {"tested_on": "Zucker diabetic fatty (ZDF) rats", "assay": "Glucose and triglyceride levels in a rat diabetes model", "type": "in vivo", "procedure": "64 six-week-old male Zucker diabetic fatty (ZDF) rats with glucose levels of 175-300 mg/dL were randomized and divided into eight dosing groups: 1) vehicle only (0.5% methylcellulose (w/v), 0.2% Tween 80 (w/v); negative control), 2) (+)-KDT501 25 mg/kg, 3) (+)-KDT501 50 mg/kg, 4) (+)-KDT501 100 mg/kg, 5) (+)-KDT501 200 mg/kg, 6) metformin 200 mg/kg (positive control), 7) metformin 200 mg/kg and (+)-KDT501 100 mg/kg, and 8) pioglitazone 30 mg/kg (positive control). Drugs were administered orally twice a day for 33 days.\nAnimals were weighed at randomization and once per week thereafter, with administration dosages calculated based on the most recent body weight measurements. Blood samples were collected by tail bleed three days prior to randomization, at randomization, and at days 15 and 29 after the start of treatment. These blood samples were used to perform whole blood glucose evaluations using a glucometer, as well as to measure blood triglyceride levels. Body composition was tested by qNMR on days 2 and 29 after the start of treatment. An oral glucose tolerance test (OGTT) was performed on days 31 and 32 after the start of treatment. Rats underwent an overnight fast prior to OGTT, and tail bleeds for glucose and insulin were performed pre-glucose bolus and at 15, 30, 60, 90, and 120 minutes post-glucose bolus. The glucose bolus was 2 g dextrose/kg of body weight. On day 33, a cardiac puncture was performed for PK analysis."}}}
{"smiles": "CC(C)CCC(=O)[C@@]1(O)C(O)=C(C(=O)CC(C)C)C(=O)[C@@H]1CCC(C)C.[K]", "note": "[(+)-KDT501, (+)-(4S,5R)-3,4-dihydroxy-2-(3-methylbutanoyl)-5-(3-methylbutyl)-4-(4-methylpentanoyl)cyclopent-2-en-1-one potassium salt]", "values": [{"measurement": "PPARα activity", "setting": "PPARα", "value": "little or no effect"}, {"measurement": "PPARδ activity", "setting": "PPARδ", "value": "little or no effect"}, {"measurement": "fold difference in DAPK1 IC50 between the two compounds", "setting": "Human DAPK1; (+)-KDT501 versus (−)-KDT501", "value": "~15", "unit": "fold"}, {"measurement": "IC50", "setting": "Human DAPK1; cell free assay", "value": 2650, "unit": "nM"}, {"measurement": "whole blood glucose levels", "setting": "[1]; 200 mg/kg orally twice a day", "value": "significant decrease"}, {"measurement": "triglyceride levels", "setting": "[1]; 200 mg/kg orally twice a day, days 15 and 29", "value": "significant decrease"}, {"measurement": "whole blood glucose levels", "setting": "[1]; 25, 50, or 100 mg/kg orally twice a day", "value": "nearly the same as those observed in negative control rats"}]}
